{"source": "patent US20180353500A1", "about": "“ADMINISTRATION OF DEUTERATED CFTR POTENTIATORS” (Vertex Pharmaceuticals (Europe) Limited, priority 2015, published 2018)", "key": {"[1]": {"assay": "Parent vs. metabolite pharmacokinetic profile after a single 150 mg oral dose", "assay_type": "in vivo, human", "settings": "150 mg single oral dose, FIG. 3", "procedure": "Ten healthy male and female volunteers were enrolled in a single ascending dose study of 3 doses of CTP-656 (75, 150 and 300 mg), with a cross-over comparison of 150 mg CTP-656 and 150 mg Kalydeco® (the trade name of ivacaftor) (FIG. 5). Doses of CTP-656 were administered as an aqueous suspension, and Kalydeco was administered as a tablet. All doses of CTP-656 and Kalydeco were administered within 30 minutes after the start of a high-fat containing breakfast. There was a 7 day washout between doses. The objective of the study was to compare the pharmacokinetics of single ascending doses (75, 150, and 300 mg) of CTP-656, to compare the pharmacokinetics of a single dose of 150 mg CTP-656 and 150 mg Kalydeco and to assess the safety and tolerability of CTP-656. […] There is a significant reduction in the production of the metabolites D8-M1 and D6-M6 from CTP-656 relative to the production of the metabolites M1 and M6 from ivacaftor. Thus, the parent-to-M1 ratio of AUC0-24 hr for CTP-656/D8-M1 is 2.0, compared to 0.58 for the ratio of ivacaftor to M1. […] Further, the parent-to-M6 ratio of AUC0-24 hr for CTP-656/D6-M6 is 4.0, compared to 1.5 for the ratio of ivacaftor to M6. […] As a result, the most pharmacologically-active species (i.e., the parent) is the most abundant species for CTP-656, but not for ivacaftor."}, "[2]": {"assay": "Human crossover study for D9-ivacaftor and ivacaftor (150 mg tablets)", "assay_type": "in vivo", "settings": "150 mg single dose", "procedure": "Healthy volunteers were enrolled in a cross-over comparison of 150 mg D9-ivacaftor (CTP-656) and 150 mg ivacaftor (Kalydeco)(FIG. 8, left panel). The objective of the study was to compare the safety, tolerability, and pharmacokinetics of a single dose of 150 mg D9-ivacaftor and 150 mg ivacaftor. Doses of D9-ivacaftor (CTP-656) and ivacaftor were administered as tablets (the D9-ivacaftor was administered as two 75 mg tablets). All doses of D9-ivacaftor (CTP-656) and […] were administered to fed subjects (high fat breakfast) (four subjects per sequence). There was a 7 day washout between doses. Blood samples were taken at intervals."}}}
{"smiles": "[2H]C([2H])([2H])C(c1cc(C(C)(C)C)c(NC(=O)c2c[nH]c3ccccc3c2=O)cc1O)(C([2H])([2H])[2H])C([2H])([2H])[2H]", "note": "[CTP-656]", "values": [{"measurement": "abundance of parent versus metabolites in plasma over time", "setting": "[1]", "result": "most abundant species in plasma at all times measured"}, {"measurement": "half-life, increase over the half-life of ivacaftor", "setting": "[2]; fed", "result": "about 40%"}, {"measurement": "oral clearance relative to ivacaftor", "setting": "[2]; fed", "result": "about one-third that of ivacaftor"}, {"measurement": "AUC0-24 hr compared to ivacaftor", "setting": "[2]; fed (high fat breakfast)", "result": "approximately 3 fold"}, {"measurement": "C24 hr compared to ivacaftor", "setting": "[2]; fed (high fat breakfast)", "result": "approximately 3 fold"}, {"measurement": "half-life", "setting": "[2]; human, in vivo, oral, fed", "result": "~15", "unit": "h"}]}
